Measurements reported in patent US9844575B2, “Pharmaceutical composition and functional food comprising natural extracts for preventing or treating diabetic complications or angiodema” (KOREA INSTITUTE OF ORIENTAL MEDICINE, priority 2013, dated 2017).
Counter-ions that a name gives are not always drawn.

Tests used:
[1] = system: advanced glycation endproducts (AGE); assay: Inhibitory effect against formation of advanced glycation endproducts (BSA + fructose/glucose, 7 days, fluorescence); assay type: biochemical
Experimental: Experiments were performed to examine the inhibitory effects of each of the compositions prepared in Example 1 and Example 2 against the formation of advanced glycation endproducts.
Bovine serum albumin (BSA), a protein source, was prepared by mixing into a phosphate buffer solution. As a sugar source, a mixed solution between 0.2 M fructose and 0.2 M glucose was used. Each of the compositions prepared in Example 1 and Example 2, and aminoguanidine (positive control) were respectively added into a mixed solution between BSA and a sugar, and cultured for 7 days. After culturing, the content of the resulting advanced glycation endproducts was analyzed. The amount of the advanced glycation endproducts was calculated based on the Equation 1 below using a Microplate reader (Excitation; 350 nm, Emission; 450 nm) (Table 1). Inhibitory effect of AGE (%)={100−(fluorescence intensity of a sample)−(fluorescence intensity of a blank sample)/(fluorescence intensity of a control)−(fluorescence intensity of a blank control)}×100 [Equation 1]

[2] = system: vascular endothelial growth factor (VEGF); assay: Immunohistochemical staining: formation of VEGF in retina of db/db mice; assay type: in vivo; conditions: oral once daily 12 weeks; COPH 25 and 50 mg/kg; MET 350 mg/kg; COPH 50 + MET 350 mg/kg
From the text: VEGF induces neovascularization and increases permeability of blood vessels. Additionally, VEGF also induces the formation of substrate-degradative proteins.

Row | Structure (SMILES) | IC50 ([1]; AGE formation, BSA + 0.2 M fructose/0.2 M glucose, 7 days) | Inhibitory effect (%) ([1]; Conc. 55.5 μg/mL) | Inhibitory effect (%) ([1]; Conc. 74.8 μg/mL) | Inhibitory effect (%) ([1]; Conc. 92.5 μg/mL) | expression of VEGF within retinal tissue (FIG. 9) [2]
1 | N=C(N)NN [Aminoguanidine HCl] | 76.47 ± 4.81 µg/mL | 43.92 ± 0.37% | 50.86 ± 2.17% | 54.91 ± 0.75% | 
2 | CN(C)C(=N)N=C(N)N [MET, metformin] |  |  |  |  | significantly inhibited the expression of VEGF
